The target in test [1] is Serine/threonine-protein kinase 26 (Homo sapiens) (UniProt Q9P289). The experiment in a line: Inhibition of recombinant GST-tagged human MST4 expressed in baculovirus at 1 uM by FRET assay relative to control.
In test [2] the target is Serine/threonine-protein kinase 16 (Homo sapiens, UniProt O75716). The experiment in a line: Inhibition of recombinant full length His-tagged human STK16 expressed in baculovirus expression system by FRET assay.
The subject of test [3] is Mus musculus. The experiment in a line: Down regulation of phosphorylated MKK4 level in cortical lysate of PS2APP mouse model at 15 to 50 mg/kg, po administered as single dose after 6 hrs by Western blot analysis. In kind it is functional, organism-based.
For test [4], the target named is Serine/threonine-protein kinase Nek9 (Homo sapiens) (UniProt Q8TD19). Description: Inhibition of recombinant full length GST-tagged human NEK9 catalytic domain expressed in baculovirus expression system at 1 uM by FRET assay relative to control.
The test system of test [5] is Mus musculus. The experiment in a line: In-vivo inhibition of DLK in PS2APP mouse model assessed as reduction in phosphorylated c-jun level in cortical lysate at 15 mg/kg, po administered as single dose after 6 hrs by Western blot analysis. In kind it is functional, organism-based.
Test [6] concerns the target Protein kinase C zeta type (Homo sapiens) (UniProt Q05513). Description: Inhibition of PKCzeta (unknown origin) at 1 uM by FRET assay relative to control.
The target in test [7] is Serine/threonine-protein kinase PAK 4 (Homo sapiens, UniProt O96013). Description: Inhibition of recombinant GST-tagged human PAK4 catalytic domain expressed in baculovirus expression system by FRET assay.
Test [8] deals with Death-associated protein kinase 3 (Homo sapiens) (UniProt O43293). The experiment in a line: Inhibition of recombinant full length GST-tagged human ZIPK expressed in baculovirus expression system at 1 uM by FRET assay relative to control.
Test [9] has as its target Calcium/calmodulin-dependent protein kinase type 1 (Homo sapiens) (UniProt Q14012). Description: Inhibition of recombinant full length His-tagged human CaMK1 expressed in baculovirus expression system at 1 uM by FRET assay relative to control.
In test [10] the target is T1, Mitogen-activated protein kinase kinase kinase 12 (Homo sapiens, UniProt Q12852).
T1 sequence (Q12852 whole entry): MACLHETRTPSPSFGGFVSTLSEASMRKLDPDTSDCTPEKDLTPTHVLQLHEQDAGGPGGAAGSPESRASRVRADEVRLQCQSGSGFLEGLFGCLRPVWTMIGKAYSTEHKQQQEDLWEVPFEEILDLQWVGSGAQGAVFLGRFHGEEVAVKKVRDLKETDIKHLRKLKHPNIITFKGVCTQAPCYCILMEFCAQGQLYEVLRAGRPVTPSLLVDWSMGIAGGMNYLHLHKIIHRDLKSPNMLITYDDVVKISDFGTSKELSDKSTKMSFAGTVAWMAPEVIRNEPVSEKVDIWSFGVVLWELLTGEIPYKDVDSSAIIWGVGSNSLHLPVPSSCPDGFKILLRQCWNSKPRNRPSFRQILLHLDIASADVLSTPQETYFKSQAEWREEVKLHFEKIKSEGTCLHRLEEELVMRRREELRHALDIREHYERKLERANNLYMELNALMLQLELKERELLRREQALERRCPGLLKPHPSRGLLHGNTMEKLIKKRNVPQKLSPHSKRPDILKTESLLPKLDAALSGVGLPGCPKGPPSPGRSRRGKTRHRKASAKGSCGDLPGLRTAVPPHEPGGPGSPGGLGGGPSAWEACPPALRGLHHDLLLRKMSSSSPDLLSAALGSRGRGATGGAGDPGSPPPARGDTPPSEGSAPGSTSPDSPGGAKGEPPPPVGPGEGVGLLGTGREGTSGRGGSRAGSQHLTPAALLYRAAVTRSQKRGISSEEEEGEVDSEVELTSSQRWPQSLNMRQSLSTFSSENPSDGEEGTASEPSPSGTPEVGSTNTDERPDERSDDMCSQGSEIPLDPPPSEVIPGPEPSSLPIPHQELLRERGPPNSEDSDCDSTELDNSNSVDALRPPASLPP
Description: Inhibition of doxycycline inducible human DLK transfected in HEK293 cells assessed as JNK phosphorylation after […] in presence of 10% bovine serum by Hoechst-33342 staining-based assay. The test is classed as cell-based.

Test [11] deals with Tyrosine-protein kinase receptor UFO (Homo sapiens, UniProt P30530). Description: Inhibition of recombinant His-tagged human AXL (473 to end residues) cytoplasmic domain expressed in insect cells by FRET assay.
The target in test [12] is Phosphatidylinositol 4,5-bisphosphate 3-kinase catalytic subunit gamma isoform (Homo sapiens) (UniProt P48736). Description: Inhibition of recombinant full length His-tagged human PI3KG at 1 uM by FRET assay relative to control.
In test [13] the target is Macrophage colony-stimulating factor 1 receptor (Homo sapiens, UniProt P07333). Description: Inhibition of recombinant His-tagged human CSF1R cytoplasmic domain (538 to 910 residues) expressed in baculovirus expression system by FRET assay.

Active and inactive are the calls of the source. The rule behind the calls is not given here.

Tyrosine-protein kinase receptor UFO, sequence (P30530 whole entry, the tested form may be a part, canonical isoform): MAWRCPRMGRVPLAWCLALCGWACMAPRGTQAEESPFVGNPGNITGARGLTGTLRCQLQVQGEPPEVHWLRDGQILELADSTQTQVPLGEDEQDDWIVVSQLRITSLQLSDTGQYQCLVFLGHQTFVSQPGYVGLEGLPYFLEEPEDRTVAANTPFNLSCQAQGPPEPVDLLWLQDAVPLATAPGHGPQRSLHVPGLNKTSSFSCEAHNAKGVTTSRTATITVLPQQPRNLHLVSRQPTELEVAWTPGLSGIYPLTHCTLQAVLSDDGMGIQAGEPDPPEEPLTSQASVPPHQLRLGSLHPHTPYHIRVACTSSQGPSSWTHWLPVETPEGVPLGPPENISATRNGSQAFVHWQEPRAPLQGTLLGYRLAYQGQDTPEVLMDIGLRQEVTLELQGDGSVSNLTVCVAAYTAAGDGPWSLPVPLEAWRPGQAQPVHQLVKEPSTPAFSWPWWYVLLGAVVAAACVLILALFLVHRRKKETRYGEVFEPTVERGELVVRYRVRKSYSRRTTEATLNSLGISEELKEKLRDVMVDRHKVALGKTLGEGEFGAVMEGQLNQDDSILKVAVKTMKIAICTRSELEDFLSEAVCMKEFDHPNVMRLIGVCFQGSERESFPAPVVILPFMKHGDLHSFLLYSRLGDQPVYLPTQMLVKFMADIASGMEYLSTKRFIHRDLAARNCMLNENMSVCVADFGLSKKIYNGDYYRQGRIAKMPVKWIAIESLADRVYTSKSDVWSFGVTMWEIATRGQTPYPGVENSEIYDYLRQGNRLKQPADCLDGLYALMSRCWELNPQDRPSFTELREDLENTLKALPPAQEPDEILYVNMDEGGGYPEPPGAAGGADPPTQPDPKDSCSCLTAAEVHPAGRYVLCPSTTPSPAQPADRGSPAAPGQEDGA
Calcium/calmodulin-dependent protein kinase type 1 (Homo sapiens), sequence (Q14012 whole entry, looked up): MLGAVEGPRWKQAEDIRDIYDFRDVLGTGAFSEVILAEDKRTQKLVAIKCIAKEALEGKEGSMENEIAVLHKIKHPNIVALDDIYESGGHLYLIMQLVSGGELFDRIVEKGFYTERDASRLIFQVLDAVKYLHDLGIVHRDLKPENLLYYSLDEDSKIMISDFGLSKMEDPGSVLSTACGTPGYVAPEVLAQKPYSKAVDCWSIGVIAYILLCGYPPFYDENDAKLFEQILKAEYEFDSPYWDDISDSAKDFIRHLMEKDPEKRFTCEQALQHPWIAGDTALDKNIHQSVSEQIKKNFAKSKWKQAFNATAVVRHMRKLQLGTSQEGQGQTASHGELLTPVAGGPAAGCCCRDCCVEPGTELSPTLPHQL
Serine/threonine-protein kinase PAK 4, sequence (O96013 whole entry, the tested form may be a part): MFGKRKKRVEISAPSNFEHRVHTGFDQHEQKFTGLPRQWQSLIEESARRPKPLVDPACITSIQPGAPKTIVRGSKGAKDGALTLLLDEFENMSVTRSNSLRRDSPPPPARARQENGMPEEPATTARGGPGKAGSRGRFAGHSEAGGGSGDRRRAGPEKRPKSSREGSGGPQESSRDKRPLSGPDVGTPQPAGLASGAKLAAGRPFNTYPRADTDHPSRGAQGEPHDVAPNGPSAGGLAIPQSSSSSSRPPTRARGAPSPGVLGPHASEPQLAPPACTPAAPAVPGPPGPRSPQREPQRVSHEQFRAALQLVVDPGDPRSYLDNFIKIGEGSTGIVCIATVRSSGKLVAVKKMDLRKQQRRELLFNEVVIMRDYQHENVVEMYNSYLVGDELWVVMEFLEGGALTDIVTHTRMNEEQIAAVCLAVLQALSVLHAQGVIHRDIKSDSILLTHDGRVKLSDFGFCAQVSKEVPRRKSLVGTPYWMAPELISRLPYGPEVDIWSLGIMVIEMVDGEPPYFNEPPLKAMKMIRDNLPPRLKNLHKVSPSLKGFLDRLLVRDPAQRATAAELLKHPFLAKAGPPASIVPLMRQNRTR
Protein kinase C zeta type (Homo sapiens), sequence (Q05513 whole entry, the tested form may be a part): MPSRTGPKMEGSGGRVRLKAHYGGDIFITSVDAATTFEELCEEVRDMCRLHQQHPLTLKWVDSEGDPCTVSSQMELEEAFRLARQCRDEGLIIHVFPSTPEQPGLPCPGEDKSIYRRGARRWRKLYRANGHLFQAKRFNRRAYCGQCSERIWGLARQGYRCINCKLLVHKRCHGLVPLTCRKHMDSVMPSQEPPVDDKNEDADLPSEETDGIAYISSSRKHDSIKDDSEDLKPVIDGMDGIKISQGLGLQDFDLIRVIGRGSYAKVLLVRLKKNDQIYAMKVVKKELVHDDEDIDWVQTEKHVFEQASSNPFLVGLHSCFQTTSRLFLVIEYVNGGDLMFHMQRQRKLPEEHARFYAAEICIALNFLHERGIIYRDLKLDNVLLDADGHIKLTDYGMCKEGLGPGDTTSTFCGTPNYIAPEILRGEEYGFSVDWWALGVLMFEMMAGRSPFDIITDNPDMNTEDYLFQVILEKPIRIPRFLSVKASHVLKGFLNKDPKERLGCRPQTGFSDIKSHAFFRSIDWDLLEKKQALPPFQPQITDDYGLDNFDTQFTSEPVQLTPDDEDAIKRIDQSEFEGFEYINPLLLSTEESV
Macrophage colony-stimulating factor 1 receptor, sequence (P07333 whole entry, the tested form may be a part): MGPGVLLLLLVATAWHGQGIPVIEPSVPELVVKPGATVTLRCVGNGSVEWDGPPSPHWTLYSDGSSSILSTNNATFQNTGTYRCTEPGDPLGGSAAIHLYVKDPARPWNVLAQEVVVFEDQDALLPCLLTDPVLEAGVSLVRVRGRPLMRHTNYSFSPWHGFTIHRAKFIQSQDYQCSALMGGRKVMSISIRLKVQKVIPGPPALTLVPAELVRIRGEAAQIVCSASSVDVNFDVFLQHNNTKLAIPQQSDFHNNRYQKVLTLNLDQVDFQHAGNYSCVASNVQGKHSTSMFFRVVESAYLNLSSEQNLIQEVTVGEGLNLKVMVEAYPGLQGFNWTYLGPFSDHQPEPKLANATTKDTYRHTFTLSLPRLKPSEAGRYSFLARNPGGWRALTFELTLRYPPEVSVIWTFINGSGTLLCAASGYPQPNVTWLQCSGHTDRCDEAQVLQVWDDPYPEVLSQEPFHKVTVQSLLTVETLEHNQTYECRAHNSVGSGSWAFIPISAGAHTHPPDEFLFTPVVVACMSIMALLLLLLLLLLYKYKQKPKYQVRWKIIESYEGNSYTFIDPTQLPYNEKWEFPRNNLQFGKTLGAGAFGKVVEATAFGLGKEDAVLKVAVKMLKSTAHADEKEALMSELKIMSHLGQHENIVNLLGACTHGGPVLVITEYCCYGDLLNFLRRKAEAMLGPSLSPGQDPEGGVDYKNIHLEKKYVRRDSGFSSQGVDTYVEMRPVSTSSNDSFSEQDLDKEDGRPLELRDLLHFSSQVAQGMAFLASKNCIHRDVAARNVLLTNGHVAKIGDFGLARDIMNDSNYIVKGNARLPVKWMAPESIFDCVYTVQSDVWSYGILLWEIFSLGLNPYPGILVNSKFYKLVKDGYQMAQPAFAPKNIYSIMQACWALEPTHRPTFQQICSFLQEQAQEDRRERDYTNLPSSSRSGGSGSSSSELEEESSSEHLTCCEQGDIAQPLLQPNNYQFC
Death-associated protein kinase 3 (Homo sapiens), sequence (O43293 whole entry, looked up): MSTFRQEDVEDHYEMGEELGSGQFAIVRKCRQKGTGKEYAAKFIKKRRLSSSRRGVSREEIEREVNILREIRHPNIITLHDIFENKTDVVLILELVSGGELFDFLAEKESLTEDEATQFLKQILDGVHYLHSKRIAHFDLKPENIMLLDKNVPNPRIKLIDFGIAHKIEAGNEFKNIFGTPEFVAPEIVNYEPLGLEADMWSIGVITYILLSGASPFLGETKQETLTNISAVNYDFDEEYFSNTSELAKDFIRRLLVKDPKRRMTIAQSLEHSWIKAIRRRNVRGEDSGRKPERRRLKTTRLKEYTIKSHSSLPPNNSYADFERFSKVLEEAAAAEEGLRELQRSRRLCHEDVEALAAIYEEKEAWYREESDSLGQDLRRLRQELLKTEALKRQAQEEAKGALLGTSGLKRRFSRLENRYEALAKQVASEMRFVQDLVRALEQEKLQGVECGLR
Serine/threonine-protein kinase Nek9 (Homo sapiens), sequence (Q8TD19 whole entry, the tested form may be a part): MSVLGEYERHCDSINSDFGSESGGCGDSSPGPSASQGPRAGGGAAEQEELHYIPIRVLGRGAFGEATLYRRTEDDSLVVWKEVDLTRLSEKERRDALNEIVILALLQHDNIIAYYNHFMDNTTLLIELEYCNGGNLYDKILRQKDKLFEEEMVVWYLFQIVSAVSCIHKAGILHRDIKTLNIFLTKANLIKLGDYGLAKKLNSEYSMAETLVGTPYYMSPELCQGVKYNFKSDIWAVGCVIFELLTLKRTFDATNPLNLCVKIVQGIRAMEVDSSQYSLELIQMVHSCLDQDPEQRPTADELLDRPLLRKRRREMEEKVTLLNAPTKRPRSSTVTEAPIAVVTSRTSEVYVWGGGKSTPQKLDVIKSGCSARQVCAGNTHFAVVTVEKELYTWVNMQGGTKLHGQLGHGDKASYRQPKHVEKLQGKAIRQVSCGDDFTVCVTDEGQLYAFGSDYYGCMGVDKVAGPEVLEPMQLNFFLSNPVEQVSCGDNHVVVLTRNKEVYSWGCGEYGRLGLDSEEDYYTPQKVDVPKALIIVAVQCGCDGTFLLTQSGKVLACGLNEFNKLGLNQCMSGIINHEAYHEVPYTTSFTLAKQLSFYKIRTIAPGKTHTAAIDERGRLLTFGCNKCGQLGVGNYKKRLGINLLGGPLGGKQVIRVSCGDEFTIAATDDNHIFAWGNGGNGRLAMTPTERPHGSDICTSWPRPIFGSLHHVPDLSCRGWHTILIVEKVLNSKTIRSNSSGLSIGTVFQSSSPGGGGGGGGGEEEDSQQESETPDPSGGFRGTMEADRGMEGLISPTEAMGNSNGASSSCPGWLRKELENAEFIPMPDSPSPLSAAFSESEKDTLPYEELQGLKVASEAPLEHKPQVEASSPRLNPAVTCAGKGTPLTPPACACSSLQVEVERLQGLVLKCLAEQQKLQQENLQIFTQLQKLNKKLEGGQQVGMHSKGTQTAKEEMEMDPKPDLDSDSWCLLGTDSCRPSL

For the compound `CC(C)n1nc(-c2cnc(N)c(OC(F)(F)F)c2)cc1[C@H]1[C@@H]2CN(C3COC3)C[C@@H]21`, the inhibition in test [1] is -3.5%; in test [4], -3.4%; in test [6], 5.9%; in test [8] it was 3.5%; in test [9], -5.9%. Also, the results for the IC50 in [2], in test [7] and in test [10] were 1.52 µM, 0.673 µM and 0.129 µM, respectively. Further, in the test on Mus musculus [3], the outcome was Active. The inhibition result with Mus musculus [5] is “Active”.
With `Nc1ncc(-c2cc([C@H]3[C@@H]4CN(C5COC5)C[C@@H]43)n(CC3CC3)n2)cc1C(F)(F)F`, the results for the IC50 in [11] and in test [13] were 0.448 µM and 1.22 µM, respectively. Moreover, the inhibition in test [12] was found to be 12.4%.
